Laboratory results: paper PMC5722316, “Synthesis of novel purpurealidin analogs and evaluation of their effect on the cancer-relevant potassium channel KV10.1” (PLoS ONE, 2017)
Read-outs that look alike come from different tables or passages of the source.

Columns and labels:
Xenopus oocytes = test: 48-h incubation of Xenopus oocytes, oocyte quality; format: cell-based, Xenopus laevis; settings: 10 μM
Source text: A dose-dependent antiproliferative and cytotoxic effect was not only observed on the KV10.1-expressing cells but also on the control cell lines.

hTERT RPE-1 = test: Proliferation assay (IncuCyte live-cell imaging, cell confluency); format: cell-based; settings: Homo sapiens, hTERT-RPE1, indicative, from AUC vs concentration (2-100 μM), read-out: Antiproliferative effect (IC50)
Procedure: (§1) Cell lines SH-SY5Y (ACC 209), DU145 (ACC 261), LNCaP (ACC 256) and NIH-3T3 (ACC 59) were purchased from DSMZ (Germany). MDA-MB-435S (HTB 129) and hTERT RPE-1 (CRL 4000) were obtained from ATCC (USA). Cell lines were cultured in their recommended media Supplemented with 10% or 15% FCS (PAA laboratories, Germany) at 37°C in humidified 5% CO2 atmosphere. All media were purchased from ThermoFisher Scientific (Waltham, Massachusetts, United States).
(§2) Cell proliferation, cytotoxicity and apoptosis were assessed in a 96-well microtiter plate by live-cell imaging using an IncuCyte Zoom System (Essen BioScience, UK). Cell proliferation was monitored in terms of cell confluency (%). Cell cytotoxicity was assessed by the CellTox Green Dye assay (Promega, Madison, Wisconsin, USA). The Incucyte Caspase-3/7 apoptosis assay (Essen BioScience, UK) was used to evaluate the effect of compound 5 on the apoptotic pathway. As negative controls media supplemented with 0.05% of DMSO were used.
(§3) Live-cell imaging data were collected from the IncuCyte Zoom software and analyzed using GraphPad Prism 5 software. Proliferation was measured as Phase Object Confluence (%), cytotoxicity and apoptosis were measured as Green Object Count (1/mm^2). All data are represented as mean S.E.M of n = 6 different wells.
(§4) The following concentrations of compound 5 were added to the different cell lines, 100 μM, 50 μM, 20 μM, 10 μM, 5 μM and 2 μM to assess its effect on cell proliferation (S1 Fig) and cytotoxicity (S2 Fig). Indicative IC50-values for the proliferation assays were obtained by plotting the areas under the curve (AUC × 10^3) against the tested compound 5 concentrations and by fitting the curve with a logistic dose-response equation. The EC50-values for the cytotoxicity assays were calculated correspondingly (S3 Fig). Although more data points would be necessary to calculate precise IC50 and EC50-values, it is clear that compound 5 inhibits the proliferation and induces cytotoxicity in all the tested cell lines in the low to middle micromolar range.

MDA-MB-435S = test: as above; format: cell-based; settings: Homo sapiens, indicative, from AUC vs concentration (2-100 μM), read-out: Antiproliferative effect (IC50)
Procedure: as §1, §2, §3, §4

LNCAP = test: as above; format: cell-based; settings: Homo sapiens, indicative, from AUC vs concentration (2-100 μM), read-out: Antiproliferative effect (IC50)
Procedure: as §1, §2, §3, §4

SH-SY5Y = test: as above; format: cell-based; settings: Homo sapiens, indicative, from AUC vs concentration (2-100 μM), read-out: Antiproliferative effect (IC50)
Procedure: as §1, §2, §3, §4

NIH-3T3 = test: as above; format: cell-based; settings: Mus musculus, NIH3T3, indicative, from AUC vs concentration (2-100 μM), read-out: Antiproliferative effect (IC50)
Procedure: as §1, §2, §3, §4

DU145 = test: as above; format: cell-based; settings: Homo sapiens, DU-145, indicative, from AUC vs concentration (2-100 μM), read-out: Antiproliferative effect (IC50)
Procedure: as §1, §2, §3, §4

hKV10.1a = molecular target: T1, hKV10.1a (Homo sapiens, UniProt O95259); test: Two-electrode voltage-clamp recordings of KV10.1 currents in Xenopus laevis oocytes; format: cell-based
T1 construct: expressed in transfected cells; host or cells: Xenopus laevis oocytes injected with cRNA transcribed from the hKV10.1a-pSGEM plasmid
T1 sequence (O95259 1-962 isoform O95259-2): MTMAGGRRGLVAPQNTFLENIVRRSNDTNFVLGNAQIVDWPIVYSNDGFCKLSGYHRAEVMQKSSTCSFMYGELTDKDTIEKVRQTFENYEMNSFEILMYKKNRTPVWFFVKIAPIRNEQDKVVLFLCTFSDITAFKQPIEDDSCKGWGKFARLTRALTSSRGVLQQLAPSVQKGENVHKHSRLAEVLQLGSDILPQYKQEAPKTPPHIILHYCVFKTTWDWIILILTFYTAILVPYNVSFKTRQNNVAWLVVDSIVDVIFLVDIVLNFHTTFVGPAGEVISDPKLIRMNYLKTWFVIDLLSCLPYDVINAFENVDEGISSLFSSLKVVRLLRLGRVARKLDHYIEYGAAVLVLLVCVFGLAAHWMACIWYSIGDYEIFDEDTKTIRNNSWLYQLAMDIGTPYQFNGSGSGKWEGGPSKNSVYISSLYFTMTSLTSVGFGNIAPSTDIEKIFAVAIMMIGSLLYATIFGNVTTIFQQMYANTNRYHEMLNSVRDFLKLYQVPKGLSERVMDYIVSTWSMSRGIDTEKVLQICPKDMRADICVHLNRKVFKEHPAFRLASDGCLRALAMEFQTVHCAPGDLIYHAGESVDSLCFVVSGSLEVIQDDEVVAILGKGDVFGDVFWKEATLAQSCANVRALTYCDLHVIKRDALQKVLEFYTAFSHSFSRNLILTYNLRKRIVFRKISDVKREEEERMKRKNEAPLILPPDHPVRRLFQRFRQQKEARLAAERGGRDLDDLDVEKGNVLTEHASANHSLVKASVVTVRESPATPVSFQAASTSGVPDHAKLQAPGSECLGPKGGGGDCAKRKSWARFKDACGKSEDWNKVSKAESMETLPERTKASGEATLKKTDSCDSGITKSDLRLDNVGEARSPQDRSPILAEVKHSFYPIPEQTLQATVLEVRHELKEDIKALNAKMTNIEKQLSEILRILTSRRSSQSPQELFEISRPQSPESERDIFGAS

[1] = Cytotoxicity assay (CellTox Green Dye, IncuCyte); format: cell-based; settings: indicative, from AUC vs concentration (2-100 μM), read-out: Cytotoxic effect (EC50)
Procedure: as §1, §2, §3, §4

**Q.** Which “oocyte quality (visual and electrophysiological observation)” value (Xenopus oocytes) does the source give for `COc1ccc(C(=O)NCCc2cc(Br)c(OCCCN(C)C)c(Br)c2)cc1Cl` [Compound 5, 3-Chloro-N-[3,5-dibromo-4-[3-(dimethylamino)propoxy]phenethyl]-4-methoxybenzamide] here?
**A.** The value was “did not result in noticeable deterioration of the oocyte quality”.

**Q.** And the melting point?
**A.** Its melting point is 79 to 81 °C.

**Q.** What about the IC50 (hTERT RPE-1) of the same molecule?
**A.** Its IC50 is 12.5 µM.

**Q.** And the IC50 (MDA-MB-435S)?
**A.** The IC50 was 28.1 µM.

**Q.** What about the IC50 (LNCAP) of the same molecule?
**A.** The IC50 was 26.4 µM.

**Q.** And the IC50 (SH-SY5Y)?
**A.** The IC50 was 12.2 µM.

**Q.** What about the IC50 (NIH-3T3) of the same molecule?
**A.** Its IC50 is 7.13 µM.

**Q.** And the IC50 (DU145)?
**A.** The IC50 was 28.9 µM.

**Q.** What about the “time constant (τ) of current decrease on open channels” value (hKV10.1a; 10 μM added during 20-s continuous step to 30 mV, no P/4 leak subtraction) of the same molecule?
**A.** The value was ~ 1.4 s.

**Q.** What about the “shift of activation curve (ΔV1/2) to more negative potentials” value (hKV10.1a; 10 μM, HK solution ([K+]e = 96 mM), Boltzmann fit) of the same molecule?
**A.** Its value is 14.8 ± 2.1 mV.

**Q.** And the “half-maximal voltage of activation (V1/2) in presence of compound” value (hKV10.1a; 10 μM, HK solution ([K+]e = 96 mM), control V1/2 = 39.3 ± 1.7 mV)?
**A.** Its value is 24.5 ± 1.3 mV.

**Q.** What about the “slope factor k of activation curve in presence of compound” value (hKV10.1a; 10 μM, HK solution, control k = 15.7 ± 0.9) of the same molecule?
**A.** The value was 14.5± 1.0.

**Q.** And the EC50 ([1]; human, DU145 cells)?
**A.** The EC50 was 60.4 µM.

**Q.** What about the EC50 ([1]; human, LNCaP cells) of the same molecule?
**A.** The EC50 was 40.4 µM.

**Q.** What about the EC50 ([1]; human, MDA-MB-435S cells) of the same molecule?
**A.** The EC50 was 16.5 µM.

**Q.** And the EC50 ([1]; human, SH-SY5Y cells)?
**A.** The EC50 was 15.3 µM.

**Q.** And the EC50 ([1]; human, hTERT RPE-1 cells)?
**A.** Its EC50 is 15.6 µM.

**Q.** What about the EC50 ([1]; mouse, NIH-3T3 cells) of the same molecule?
**A.** The EC50 was 4.58 µM.
